From patent publication US7781439B2, “Pyrazolopyrimidines” (Bayer CropScience AG, priority 2005, dated 2010)
Like-named read-outs stand apart in the source and are kept apart here. Marks after values point to notes of the source that are not given here.

Key:
A375 cells = assay: LIVE/DEAD cytotoxicity assay, inhibition of cell proliferation, A375; type: cell-based, human; details: for GI50: Homo sapiens, read-out: log GI50 values (M), A375 cells (converted)
Procedure: (§1) Compounds of the present invention were tested for a possible cytotoxic or proliferation-inhibiting activity on the human tumour cell lines HeLa, SW620 and A375 (all from ATCC, American Type Culture Collection). To this end, the cells were plated in microtitre plates from Greiner (manufacturer No. 781092) at a cell density of 1000 cells/microtitre plate well and cultivated in cell culture medium at 37° C. under a 5% carbon dioxide atmosphere. Cell culture media and additives were purchased from Invitrogen and the foetal calf serum from Biochrom. The cell culture media for HeLa and A375 cells were used as stated by ATCC (HeLa: MEM, order No. 10370-047, with 1% sodium bicarbonate, 1% non-essential amino acids, 1% sodium pyruvate, 10% foetal calf serum, 0.1% gentamycin; A375: DMEM, order No. 41965-039, 2% sodium bicarbonate, 1% L-Glutamax, 10% foetal calf serum, 0.1% gentamycin). The culture medium for the SW620 cells consisted of DMEM, order No. 41965-039, 1% non-essential amino acids, 10% foetal calf serum, 0.1% gentamycin.
(§2) 24 hours after the cells had been plated in the microtitre plates, various concentrations of at most 100 μM down to a minimum concentration of 5 nM of the test compounds were added to the cells. Stock solutions of the test compounds (10 mM) were prepared in DMSO and stored at −20° C. For the cytotoxicity tests, the test compounds were diluted in the appropriate cell culture medium.
(§3) After a further 48 hours of incubation, the cells were washed with medium and analysed with the aid of a two-colour fluorescence cytotoxicity/viability test (LIVE/DEAD Viability/Cytotoxicity ASSAY Kit from Molecular Probes, order No. L-3224), according to the instructions of the manufacturer. To this end, the medium was aspirated and in each case 30 μl of LIVE/DEAD reagent per microtitre plate well were added to the cells, which were then incubated for 30 minutes. The cells were then washed with PBS (phosphate-buffered saline). The number of live cells was analysed by measuring the green fluorescence of the live dye calcein-AM as a component of the LIVE/DEAD reagent using a fluorescence plate reader (Flexstation, from Molecular Devices) at an excitation wavelength of 485 nm and an emission wavelength of 525 nm (Oral et al. 1998). Cells only with cell culture medium, without added test compounds, were treated in parallel and analysed as growth controls. The reference compounds used for anti-tumour agents having a cytotoxic or proliferation-inhibiting action were colchicine (from Merck/Calbiochem, order No 234115) and Taxol (baccatin III N-benzyl-b-phenylisoserine ester, from Merck/Calbiochem, order No. 580555) (Schiff and Horwitz 1980; Holmes et al., 1991). The cytotoxic effects of the test compounds were expressed as logarithmic GI50 values ((growth)-inhibiting logarithmic concentration value at which a cell growth reduced by 50% compared to the control without test compounds was measured; Xia et al., 2001; Smith et al., 2005).

SW620 cells = assay: LIVE/DEAD cytotoxicity assay, inhibition of cell proliferation, SW620; type: cell-based, human; details: for GI50: Homo sapiens, read-out: log GI50 values (M), SW620 cells (converted)
Procedure: as §1, §2, §3

HeLa cells = assay: LIVE/DEAD cytotoxicity assay, inhibition of cell proliferation, HeLa; type: cell-based, human; details: for GI50: Homo sapiens, read-out: log GI50 values (M), HeLa cells (converted)
Procedure: as §1, §2, §3

log P determination = type: physicochemical
[1] = A375 cells, 48 hours incubation, calcein-AM fluorescence
[2] = SW620 cells, 48 hours incubation, calcein-AM fluorescence
[3] = HeLa cells, 48 hours incubation, calcein-AM fluorescence
[4] = values marked *, no footnote carries the single asterisk, general footnote: HPLC gradient method, acetonitrile/0.1% aqueous phosphoric acid
[5] = EEC Directive 79/831 Annex V. A8 by HPLC (gradient method, acetonitrile/0.1% aqueous phosphoric acid)

C[C@H](Nc1c(-c2c(F)cc(F)cc2Cl)c(Cl)nc2c(C(=O)NS(C)(=O)=O)cnn12)C(F)(F)F [Example 117]
log GI50 values (M), A375 cells (A375 cells; [1]): 6.6 M | log GI50 values (M), SW620 cells (SW620 cells; [2]): 6.6 M | log GI50 values (M), HeLa cells (HeLa cells; [3]): 6.8 M | log p (log P determination; [4]): 3.56*

CC(C)[C@@H](C)Nc1c(-c2c(F)cc(F)cc2F)c(Cl)nc2c(C(=O)NS(C)(=O)=O)cnn12 [Example 177]
log GI50 values (M), A375 cells (A375 cells; [1]): 8.1 M | log GI50 values (M), SW620 cells (SW620 cells; [2]): 6.7 M | log GI50 values (M), HeLa cells (HeLa cells; [3]): >8 M | log p (log P determination; [4]): 3.85*

CC(C)Nc1c(-c2c(F)cc(F)cc2F)c(Cl)nc2c(C(=O)NS(C)(=O)=O)cnn12 [Example 345]
log GI50 values (M), A375 cells (A375 cells; [1]): 6.3 M | log GI50 values (M), SW620 cells (SW620 cells; [2]): 6.4 M | log GI50 values (M), HeLa cells (HeLa cells; [3]): 6.6 M | log p (log P determination; values marked *, HPLC, gradient method, acetonitrile/0.1% aqueous phosphoric acid, EEC Directive 79/831 Annex V. A8): 3.24*

CC(=O)O[C@H]1C(=O)[C@@]2(C)[C@H]([C@H](OC(=O)c3ccccc3)[C@]3(O)C[C@H](OC(=O)[C@H](O)[C@@H](NC(=O)c4ccccc4)c4ccccc4)C(C)=C1C3(C)C)[C@]1(OC(C)=O)CO[C@@H]1C[C@@H]2O [Taxol, reference compound]
GI50 (A375 cells; A-375, A375 cells, 48 hours incubation, calcein-AM fluorescence): 2e-07 M | GI50 (SW620 cells; SW-620, SW620 cells, 48 hours incubation, calcein-AM fluorescence): 1.26e-07 M | GI50 (HeLa cells; [3]): 1.58e-08 M

COc1cc2c(c(OC)c1OC)-c1ccc(OC)c(=O)cc1[C@@H](NC(C)=O)CC2 [colchicine, reference compound]
GI50 (A375 cells; A-375, 48 h): 2e-08 M | GI50 (SW620 cells; SW-620, 48 h): 3.16e-08 M | GI50 (HeLa cells; HeLa, 48 h): 1.58e-08 M

CC(Nc1c(-c2ccc(F)cc2Cl)c(Cl)nc2c(C(=O)Nc3ccn(C)n3)cnn12)C(C)(C)C (centres unmarked) [compound 1185]
log p (log P determination; [5]): 4.69

CC(C)C(C)Nc1c(-c2ccc(F)cc2Cl)c(Cl)nc2c(C(=O)Nc3ccnn3C)cnn12 (centres unmarked) [compound 1186]
log p (log P determination; [5]): 4.18

CC(Nc1c(-c2ccc(F)cc2Cl)c(Cl)nc2c(C(=O)Nc3cnn(C)c3)cnn12)C(C)(C)C (centres unmarked) [compound 1187]
log p (log P determination; [5]): 4.26

CC(C)C(C)Nc1c(-c2ccc(F)cc2Cl)c(Cl)nc2c(C(=O)Nc3ncn(C)n3)cnn12 (centres unmarked) [compound 1188]
log p (log P determination; [5]): 3.62

CC(C)C(C)Nc1c(-c2ccc(F)cc2Cl)c(Cl)nc2c(C(=O)Nc3cnn(C)c3)cnn12 (centres unmarked) [compound 1189]
log p (log P determination; [5]): 3.95

CC(C)C(C)Nc1c(-c2ccc(F)cc2F)c(Cl)nc2c(C(=O)NS(C)(=O)=O)cnn12 (centres unmarked) [compound 1190]
log p (log P determination; [5]): 3.87

CC(Nc1c(-c2ccc(F)cc2Cl)c(Cl)nc2c(C(=O)Nc3ncn(C)n3)cnn12)C(C)(C)C (centres unmarked) [compound 1191]
log p (log P determination; [5]): 3.91

CC1CCN(c2c(-c3ccc(F)cc3Cl)c(Cl)nc3c(C(=O)Nc4ncn(C)n4)cnn23)CC1 [compound 1192]
log p (log P determination; [5]): 3.89

CC1CCN(c2c(-c3ccc(F)cc3Cl)c(Cl)nc3c(C(=O)Nc4ccnn4C)cnn23)CC1 [compound 1193]
log p (log P determination; [5]): 4.47

Cc1ccc(-c2c(Cl)nc3c(C(=O)NS(C)(=O)=O)cnn3c2NC(C)C(C)(C)C)c(Cl)c1 (centres unmarked) [compound 1194]
log p (log P determination; [5]): 4.76

CC1CCN(c2c(-c3ccc(F)cc3Cl)c(Cl)nc3c(C(=O)Nc4ccn(C)n4)cnn23)CC1 [compound 1195]
log p (log P determination; [5]): 4.66

CC1CCN(c2c(-c3ccc(F)cc3Cl)c(Cl)nc3c(C(=O)Nc4cnn(C)c4)cnn23)CC1 [compound 1196]
log p (log P determination; [5]): 4.31

CC1CCN(c2c(-c3ccc(F)cc3Cl)c(Cl)nc3c(C(=O)Nc4ncn[nH]4)cnn23)CC1 [compound 1197]
log p (log P determination; [5]): 4.11

COC(=O)c1cn[nH]c1N [methyl 5-amino-1H-pyrazole-4-carboxylate]
log p (log P determination; HPLC (gradient method), starting materials and intermediates, log P / log P*, read-out: log P): -0.07
